Source: patent US20210315893A1 (Galapagos NV, priority 2017, published 2021)
pEC50: −log10 of the molar value. Where two headings read alike, the source gives them in different places.

How the values were obtained:
[1] = molecular target: T1, human GPCR sphingosine 1-phosphate receptor 2 (Homo sapiens, UniProt O95136); test: S1PR2 antagonist Ca2+ flux assay; type: cell-based; settings: antagonist mode, CHO-S1PR2 cells, S1P at EC80, Ca2+ fluorescence; read-out: S1P2 EC50 (nM), S1P2 antagonist EC50
T1 construct: host or cells: CHO
How it was run: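 CHO cells stably expressing human S1PR2, serum-starved 1 h, Fluo8-loaded; compound-evoked Ca2+ fluorescence read 3 min (agonist mode), then after 15 min S1P at EC80 added and read 3 min (antagonist mode). Max/baseline fluorescence ratios normalised to vehicle and S1P EC100 or EC50 controls; EC50 derived.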

[2] = molecular target: T2, human GPCR sphingosine 1-phosphate receptor 1 (Homo sapiens, UniProt P21453); test: S1PR1 selectivity Ca2+ flux assay (antagonist readout); type: cell-based; settings: for EC50: antagonist readout, CHO cells overexpressing human S1PR1 and Gq, S1P at EC80 (6 nM), read-out: S1P1 EC50 (nM), S1P1 antagonist EC50
T2 construct: host or cells: CHO
Protocol: (§1) 50 μL of Chinese hamster ovary (CHO) cells stably overexpressing human S1PR1 or S1PR5 are seeded in 384 well sterile microplates (7,500 cells/well or 10,000 cells/well respectively) and are incubated overnight at 37° C. under 5% CO2. Cells are subsequently washed twice with 25 μL/well of starvation medium (F-12 Ham's medium containing 0.1% fatty acid free bovine serum albumin (FAF BSA)). After one h starvation at 37° C., 5% CO2, cells are loaded with 25 μL of Fluo 8 dye diluted in Hank's balanced salt solution (HBSS) with 20 mM Hepes complemented with 5 mM of probenecid following the recommendations of the manufacturer (one h at 37° C., 5% CO2). Dilution series of compounds are prepared in HBSS buffer with 20 mM Hepes and 0.1% BSA (FAF). 10 μL of diluted compound is added to the cells using the FDSS/pCELL and intracellular calcium changes are measured immediately by recording fluorescence during 3 min (agonist readout). The ratio of maximal signal over background before compound injection is used to determine compound response.
After an incubation of 15 min at 37° C., following the agonist readout, the plates are transferred to the FDSS/pCELL reader. […] The ratio of maximal signal over background before S1P injection was used to determine the inhibitory effect ofthe compound.
(§2) Raw data obtained in each experiment (ratio of maximal signal over background for calcium mobilization assays) were normalized in percentage of activation (agonist mode) or inhibition (antagonist mode) using positive and negative experiment controls. Each individual plate quality was assessed by evaluation of Z′ factor calculated with raw data using the following equation
(§3) Y=bottom+(top−bottom)/(1+(10^(Log IC50−X)*Hillslope)) where X is the logarithm of the concentration of the compound

[3] = molecular target: T3, human GPCR sphingosine 1-phosphate receptor 5 (Homo sapiens, UniProt Q9H228); test: S1PR5 selectivity Ca2+ flux assay (antagonist readout); type: cell-based; settings: CHO cells overexpressing human S1PR5 and Gq, agonist at EC80 (20 nM), read-out: S1P5 EC50 (nM), S1P5 antagonist EC50
T3 construct: host or cells: CHO
From the text: To evaluate the selectivity of the compounds for S1PR2 over S1PR1 and S1PR5, asimilar assay set upas described above for theS1PR2 calcium flux assays waspeformed: CHO cells stably overexpressing human GPCR sphingosine 1-phosphate receptor 1 and Gq protein (Euroscreen, FAST-0197A) or overexpressing human GPCR sphingosine 1-phosphate receptorS5 and Gq protein were used (Perkin Elmer, ES-593-A). In case of the S1PR5 assay triggering was done with an SPR5 specific agonist instead of with S1P (Hobson et al., 2015).
as §1
After an incubation of 15 min at 37° C., following the agonist readout, the plates are transferred to the FDSS/pCELL reader. Cells are stimulated with 10 μL of EC80 concentration of S1P (6 nM for S1P1 and 20 nM for S1P5) and intracellular calcium changes are measured immediately by recording fluorescence during three min (antagonist readout). The ratio of maximal signal over background before S1P injection was used to determine the inhibitory effect ofthe compound.
as §2, §3

S1PR2 = molecular target: T4, S1PR2 (Homo sapiens, UniProt O95136); test: S1PR2 binding assay (competition with radioactively labeled S1P, SpA); settings: membranes from stable cell line over expressing S1PR2, SpA beads; read-out: S1P2 EC50 (nM), S1PR2 binding EC50
T4 construct: expressed in transfected cells
How it was run: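 Competition with [3H]S1P for membranes from a stable S1PR2-overexpressing cell line, 20 μg/well, captured on PVT-WGA SPA beads, in 20 mM Tris pH 7.5, 10 mM MgCl2, 100 mM NaCl, 0.4% fatty-acid-free BSA, 1 mM Na3VO4. 2 h at room temperature, then centrifugation and scintillation counting.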

HFL-1 cells [4] = test: IL8 assay in the presence of Human Serum Albumin; settings: HFL1, read-out: HSA IL8 EC50
HFL-1 cells [5] = test: IL-8 production assay (S1P induced IL-8); type: cell-based; settings: Homo sapiens, HFL1; S1P (1 μM) induced IL-8 in HFL-1 cells, starvation medium without HSA; read-out: IL8 EC50
How it was run: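 HFL-1 human fetal lung fibroblasts were starved in F12K/1% FBS, then given compound for 1 h (10-point, 1/3 dilution, 30 μM top, 0.3% DMSO final). S1P was added at 1 μM final for 16–24 h at 37 °C, and secreted IL-8 in supernatant quantified by ELISA.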

T3 sequence (Q9H228 whole entry): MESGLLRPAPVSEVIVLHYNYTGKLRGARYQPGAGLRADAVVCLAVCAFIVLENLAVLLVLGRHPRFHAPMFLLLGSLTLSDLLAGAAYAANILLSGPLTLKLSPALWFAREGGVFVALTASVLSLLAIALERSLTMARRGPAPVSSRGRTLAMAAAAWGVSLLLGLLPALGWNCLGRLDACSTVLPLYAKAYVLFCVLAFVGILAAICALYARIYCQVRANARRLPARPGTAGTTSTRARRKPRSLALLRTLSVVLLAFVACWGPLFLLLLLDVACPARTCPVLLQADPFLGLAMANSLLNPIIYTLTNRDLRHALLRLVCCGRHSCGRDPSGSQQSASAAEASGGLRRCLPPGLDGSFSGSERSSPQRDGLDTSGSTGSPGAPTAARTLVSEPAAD
T2 sequence (P21453 whole entry): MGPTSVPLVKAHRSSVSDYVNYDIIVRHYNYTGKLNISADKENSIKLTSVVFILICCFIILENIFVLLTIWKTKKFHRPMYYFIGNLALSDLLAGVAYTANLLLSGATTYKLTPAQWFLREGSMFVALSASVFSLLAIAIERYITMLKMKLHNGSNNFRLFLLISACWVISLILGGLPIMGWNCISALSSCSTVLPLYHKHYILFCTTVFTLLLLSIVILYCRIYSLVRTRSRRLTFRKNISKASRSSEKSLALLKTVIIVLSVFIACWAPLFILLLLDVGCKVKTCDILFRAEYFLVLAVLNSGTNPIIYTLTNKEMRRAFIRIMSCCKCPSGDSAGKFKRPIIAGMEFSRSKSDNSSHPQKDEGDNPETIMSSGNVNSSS
T1 sequence (O95136 whole entry): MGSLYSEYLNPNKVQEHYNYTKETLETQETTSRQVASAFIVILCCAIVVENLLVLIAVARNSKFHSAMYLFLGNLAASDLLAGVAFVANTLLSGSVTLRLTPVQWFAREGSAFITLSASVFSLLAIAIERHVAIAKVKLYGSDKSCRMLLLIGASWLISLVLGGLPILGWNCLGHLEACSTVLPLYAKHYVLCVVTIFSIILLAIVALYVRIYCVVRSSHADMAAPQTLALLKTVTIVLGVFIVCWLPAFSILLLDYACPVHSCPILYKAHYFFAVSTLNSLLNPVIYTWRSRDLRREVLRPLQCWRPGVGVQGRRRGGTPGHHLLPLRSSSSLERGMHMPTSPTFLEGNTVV
T4 sequence (O95136 whole entry): as above

Row | Structure (SMILES) | EC50 [1] | EC50 [3] | EC50 (S1PR2) | pEC50 (HFL-1 cells [4]) | EC50 [2] | pEC50 (HFL-1 cells [5]) | pEC50 [2]
1 | CC(C(=O)O)n1nc(Cn2cc3cc(OCC(F)F)c(Cl)cc3n2)c2ccccc2c1=O (stereo not shown) [Compound 76] | 161 nM | 19800 nM | 317 nM | 5.46 |  |  | ≤ 4.70
2 | O=C(O)Cn1nc(Cc2cn3cc(OCC4CC4)c(Cl)cc3n2)c2ccccc2c1=O [Compound 82, 2-[4-[[7-chloro-6-(cyclopropylmethoxy)imidazo[1,2-a]pyridin-2-yl]methyl]-1-oxo-phthalazin-2-yl]acetic acid] |  | 4380 nM |  | 6.41 | ≥ 19800 nM | 8.00 | 
3 | CC(C(=O)O)n1nc(Cc2cn3cc(OCC4CC4)c(Cl)cc3n2)c2ccccc2c1=O (stereo not shown) [Compound 83, 2-[4-[[7-chloro-6-(cyclopropylmethoxy)imidazo[1,2-a]pyridin-2-yl]methyl]-1-oxo-phthalazin-2-yl]propanoic acid] | 12.7 nM | 19800 nM | 53.2 nM | 6.90 |  |  | ≤ 4.70
4 | O=C(O)C1(c2nn(Cc3cn4cc(OCC5CC5)c(Cl)cc4n3)c3ccccc3c2=O)CC1 [Compound 96, 1-[1-[[7-chloro-6-(cyclopropylmethoxy)imidazo[1,2-a]pyridin-2-yl]methyl]-4-oxo-cinnolin-3-yl]cyclopropanecarboxylic acid] |  | 19800 nM |  | 6.37 | ≥ 19800 nM | 7.52 | 
5 | Cc1cccc2c1c(=O)c(CC(=O)O)nn2Cc1cn2cc(OCC3CC3)c(Cl)cc2n1 [Compound 102, 2-[1-[[7-chloro-6-(cyclopropylmethoxy)imidazo[1,2-a]pyridin-2-yl]methyl]-5-methyl-4-oxo-cinnolin-3-yl]acetic acid] | 3.02 nM | 19800 nM | 30 nM | 7.74 | ≥ 19800 nM |  | 

More lines, main results first:

Row | EC50 [1] | EC50 [3] | EC50 (S1PR2) | pEC50 (HFL-1 cells [4]) | EC50 [2] | pEC50 (HFL-1 cells [5]) | Structure (SMILES) | pEC50 [2]
6 |  | 19800 nM |  | 6.39 | ≥ 19800 nM | 7.53 | CC(C)(C(=O)O)c1nn(Cc2cn3cc(OCC4CC4)c(Cl)cc3n2)c2ccccc2c1=O [Compound 88, 2-[1-[[7-chloro-6-(cyclopropylmethoxy)imidazo[1,2-a]pyridin-2-yl]methyl]-4-oxo-cinnolin-3-yl]-2-methyl-propanoic acid] | 
7 |  | 6610 nM |  | 7.19 | ≥ 19800 nM | 8.24 | O=C(O)Cc1nn(Cc2cn3cc(OCC4CC4)c(Cl)cc3n2)c2ccccc2c1=O [Compound 89, 2-[1-[[7-chloro-6-(cyclopropylmethoxy)imidazo[1,2-a]pyridin-2-yl]methyl]-4-oxo-cinnolin-3-yl]acetic acid] | 
8 |  | 19800 nM |  | 6.57 | ≥ 19800 nM | 6.98 | COC(C(=O)O)c1nn(Cc2cn3cc(OCC4CC4)c(Cl)cc3n2)c2ccccc2c1=O (stereo not shown) [Compound 94, 2-[1-[[7-chloro-6-(cyclopropylmethoxy)imidazo[1,2-a]pyridin-2-yl]methyl]-4-oxo-cinnolin-3-yl]-2-methoxy-acetic acid] | 
9 |  | 19800 nM |  | 7.57 | ≥ 19800 nM | 8.24 | CCC(C(=O)O)c1nn(Cc2cn3cc(OCC4CC4)c(Cl)cc3n2)c2ccccc2c1=O (stereo not shown) [Compound 98, 2-[1-[[7-chloro-6-(cyclopropylmethoxy)imidazo[1,2-a]pyridin-2-yl]methyl]-4-oxo-cinnolin-3-yl]butanoic acid] | 
10 | 3.48 nM | 1620 nM | 22 nM | 7.76 |  | 8.82 | O=C(O)c1nn(Cc2nc3cc(OCC4CC4)c(Cl)cc3[nH]2)c2ccccc2c1=O [compound 5, 1-[[6-chloro-5-(cyclopropyl-methoxy)-1H-benzimidazol-2-yl]methyl]-4-oxo-cinnoline-3-carboxylic acid] | 
11 | 5.4 nM | 19800 nM | 30.4 nM | 7.28 |  | 8.60 | CN(C)CC(C(=O)O)c1nn(Cc2nc3cc(C#N)c(OCC4CC4)cc3[nH]2)c2ccccc2c1=O (stereo not shown) [compound 21, (2-[1-[[5-cyano-6-(cyclopropyl-methoxy)-1H-benzimidazol-2-yl]methyl]-4-oxocinnolin-3-yl]-3-(dimethyl-amino)propanoic acid)] | 
